The target of assay [1] is T1, human CB1 receptor (Homo sapiens, UniProt P21554).
T1 construct: expressed in transfected cells; host or cells: SK-N-MC cells, stably transfected with pcDNA3 CB-1 (human); semi-purified membrane pellet
Briefly: Binding assay for CB1 agonists or inverse agonists ([3H]-CP-55,940 displacement, SK-N-MC membranes). The conditions noted are these: for inhibition at 0.25 µM / inhibition at 1 µM / inhibition at 0.2 µM: read-out: CB1 receptor binding percent inhibition; for inhibition at 0.2 µM: test concentration 0.2 μM (footnote 2). How it is done: (§1) The human CB1 and CB2 receptors were stably expressed in SK-N-MC cells transfected with pcDNA3 CB-1 (human) or pcDNA3 CB-2 (human). The cells were grown in T-180 cell culture flasks under standard cell culture conditions at 37° C. in a 5% CO2 atmosphere. The cells were harvested by trysinization and homogenized in a homogenization buffer (10 mM Tris, 0.2 mM MgCl2, 5 mM KCl, with protease inhibitors aprotinin, leupeptin, pepstatin A and bacitracin) and centrifuged (2000 g). The supernatant was then centrifuged in 2M sucrose (31,300 g) to produce a semi-purified membrane pellet. The pellet was resuspended in homogenization and stored at −80° C.
(§2) On the day of the assay, the pellet was thawed on ice and diluted in assay buffer (50 mM Tris-HCl, 5 mM MgCl2, 2.5 mM EDTA, 0.5 mg/mL fatty acid free bovine serum albumin, pH 7.5). […] The plate was covered and incubated for 90 minutes at 30° C. The contents were then aspirated onto a Packard Unifilter GF/C filter bottom plate prewet with 0.5% polyethyleneimine. The wells of the polypropylene plate were rinsed and aspirated seven times with a 0.9% saline-0.5% Tween 20 solution. The Unifilter plate was dried, a scintillation cocktail was added to each well and the counts representing binding were quantitated in a TopCount scintillation counter.
(§3) For compounds tested, an IC50 binding value was obtained from percent inhibition studies in which various test concentrations were used. The binding value was calculated by linear regression.

For assay [2], the target named is T1, human CB1 receptor. The assay is described as follows: Functional cell-based assay, CB1 receptor mediated change in CRE β-gal expression (adenylate cyclase activity). The conditions noted are these: for EC50: CB1 Receptor Functional Inverse Agonist EC50, SK-N-MC cells, CRE β-gal, forskolin; for CB1 Receptor Functional Activity (change in functional activity): one compound concentration, vehicle treated cell = 100%. An excerpt:
The CB1 and CB2 receptors are G-protein coupled receptors (GPCR), which influence cell function via the Gi-protein. These receptors modulate the activity of intracellular adenylate cyclase, which in turn produces the intracellular signal messenger cyclic-AMP (cAMP).
At baseline, or during non-ligand bound conditions, these receptors are constitutively active and tonically suppress adenylate cyclase activity. The binding of an agonist causes further receptor activation and produces additional suppression of adenylate cyclase activity. The binding of an inverse agonist inhibits the constitutive activity of the receptors and results in an increase in adenylate cyclase activity.
Test compounds were evaluated in SK-N-MC cells which, using standard transfection procedures, were stably transfected with human cDNA for pcDNA3-CRE β-gal and pcDNA3 CB1 receptor (human) or pcDNA3 CB2 receptor (human). By expressing CRE β-gal, the cells produced β-galactosidase in response to CRE promoter activation by cAMP. Cells expressing CRE β-gal and either the human CB1 or CB2 receptor will produce less β-galactosidase when treated with a CB1/CB2 agonist and will produce more β-galactosidase when treated with a CB1/CB2 inverse agonist.
The cells were grown in 96-well plates under standard cell culture conditions at 37° C. in a 5% CO2 atmosphere. After 3 days, the media was removed and a test compound in media (wherein the media was supplemented with 2 mM L-glutamine, […] sodium pyruvate, 0.1% low fatty acid FBS (fetal bovine serum) and antibiotics) was added to the cell. The plates were incubated for 30 minutes at 37° C. and the plate cells were then treated with forskolin over a 4-6 hour period, then washed and lysed. The β-galactosidase activity was quantitated using commercially available kit reagents (Promega Corp. Madison, Wis.) and a Vmax Plate Reader (Molecular Devices, Inc).
The change in β-galactosidase activity was determined by setting a vehicle treated cell's activity value at 100% and expressing the β-galactosidase activity measured in a corresponding compound treated cell as a percent of the vehicle treated cell activity.
The EC50 value for functional activity for compounds tested was calculated by linear regression and was obtained from studies in which varying compound concentrations were used.
Where an EC50 value was not obtained for a test compound, the value shown (in %) represents change in functional activity and was obtained from a study in which one compound concentration was used.

A further assay concerns the target T2, human CB2 receptor (Homo sapiens, UniProt P34972).
T2 construct: expressed in transfected cells; host or cells: SK-N-MC cells, stably transfected with pcDNA3 CB-2 (human); semi-purified membrane pellet
The assay is described as follows: Binding assay for CB2 agonists or inverse agonists ([3H]-CP-55,940 displacement, SK-N-MC membranes). The conditions noted are these: for inhibition at 0.25 µM / inhibition at 0.2 µM: read-out: CB2 receptor binding percent inhibition. On the procedure: as §1, §2, §3

The mark [3] stands for this setting: test concentration 0.25 μM (footnote 3).
[4] abbreviates: test concentration 0.2 μM (footnote 2).

Molecules are shown by their SMILES. Values joined by “and” are separate entries in the source; they are usually repeats but may differ in a detail not shown here. Equal values may be shown once. Read-outs that look alike come from different tables or passages of the source.

T2 sequence (P34972 whole entry): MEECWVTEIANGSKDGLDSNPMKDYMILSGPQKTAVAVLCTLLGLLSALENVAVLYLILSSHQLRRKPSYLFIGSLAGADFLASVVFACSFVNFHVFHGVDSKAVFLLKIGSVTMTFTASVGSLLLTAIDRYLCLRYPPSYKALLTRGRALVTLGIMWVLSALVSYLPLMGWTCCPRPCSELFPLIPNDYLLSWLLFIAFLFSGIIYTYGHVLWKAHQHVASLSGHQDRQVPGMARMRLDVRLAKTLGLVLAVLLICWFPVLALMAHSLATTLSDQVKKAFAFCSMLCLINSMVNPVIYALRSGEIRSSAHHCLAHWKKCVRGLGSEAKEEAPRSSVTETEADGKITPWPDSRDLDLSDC
T1 sequence (P21554 whole entry): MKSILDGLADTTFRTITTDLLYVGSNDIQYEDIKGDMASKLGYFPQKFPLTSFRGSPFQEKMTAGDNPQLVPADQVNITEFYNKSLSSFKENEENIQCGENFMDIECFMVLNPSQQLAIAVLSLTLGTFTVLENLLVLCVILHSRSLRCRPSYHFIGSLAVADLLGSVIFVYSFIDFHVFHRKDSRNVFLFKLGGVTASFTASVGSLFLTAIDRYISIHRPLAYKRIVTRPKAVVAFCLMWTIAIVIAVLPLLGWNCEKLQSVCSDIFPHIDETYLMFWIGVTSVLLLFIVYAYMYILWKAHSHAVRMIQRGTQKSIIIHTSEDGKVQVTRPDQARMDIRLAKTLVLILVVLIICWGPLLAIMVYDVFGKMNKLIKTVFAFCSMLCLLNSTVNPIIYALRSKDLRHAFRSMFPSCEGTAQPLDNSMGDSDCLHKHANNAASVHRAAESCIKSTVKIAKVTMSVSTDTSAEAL

As for `C[C@H](NS(=O)(=O)/C=C/c1nn(-c2ccc(Cl)cc2Cl)c2c1CCC2Cc1cccc(Cl)c1)c1ccccc1` (stereo partly drawn) [Cpd 11, (2E)-2-[6-(3-chloro-benzyl)-1-(2,4-dichloro-phenyl)-1,4,5,6-tetrahydro-cyclopentapyrazol-3-yl]-ethenesulfonic acid [(1S)-1-phenyl-ethyl]-amide], the inhibition (commonly how much of the control response was suppressed) at 0.25 µM at human CB1 receptor [1] (setting [3]) came out at 27%.
Turning to `O=S(=O)(/C=C/c1nn(-c2ccc(Cl)cc2Cl)c2c1CCC2Cc1cccc(Cl)c1)NN1CCCCC1` (centres unmarked) [Cpd 10, (2E)-2-[6-(3-chloro-benzyl)-1-(2,4-dichloro-phenyl)-1,4,5,6-tetrahydro-cyclopentapyrazol-3-yl]-ethenesulfonic acid piperidin-1-ylamide], on human CB1 receptor [1] (test concentration 1 μM (footnote 1)), the inhibition at 1 µM was found to be 18%.
Take `O=C(NCc1ccccc1)c1nn(-c2ccc(F)cc2F)c2c1CCC2Cc1cccc(F)c1` (centres unmarked) [Cpd 16, 1-(2,4-difluoro-phenyl)-6-(3-fluoro-benzyl)-1,4,5,6-tetrahydro-cyclopentapyrazole-3-carboxylic acid benzylamide]: the inhibition at 0.25 µM at human CB1 receptor [1] worked out at 26%; on human CB2 receptor (setting [3]) it was 0%. In addition, the 50% effective concentration (EC50) (commonly the concentration giving half of the maximal effect) at human CB1 receptor [2] turned out to be 400 nM.
For `CCOC(=O)[C@H]1C2CCC(C2)[C@H]1NC(=O)c1nn(-c2ccc(F)cc2F)c2c1CCC2Cc1cccc(F)c1` (stereo partly drawn) [Cpd 13, (2S,3R)-3-{[1-(2,4-difluoro-phenyl)-6-(3-fluoro-benzyl)-1,4,5,6-tetrahydro-cyclopentapyrazole-3-carbonyl]-amino}-bicyclo[2.2.1]heptane-2-carboxylic acid ethyl ester], the results for the inhibition at 0.25 µM at human CB1 receptor [1] (setting [3]) and on human CB2 receptor (setting [3]) were 58% and 44%, respectively. Moreover, on human CB1 receptor [2], the “CB1 Receptor Functional Activity (change in functional activity)” value stood at 24%.
`O=C(N[C@@H]1c2ccccc2C[C@@H]1O)c1nn(-c2ccc(F)cc2F)c2c1CCC2Cc1cccc(F)c1` (stereo partly drawn) [Cpd 12, 1-(2,4-difluoro-phenyl)-6-(3-fluoro-benzyl)-1,4,5,6-tetrahydro-cyclopentapyrazole-3-carboxylic acid [(1R,2S)-2-hydroxy-indan-1-yl]-amide]: at human CB1 receptor [1], the IC50 (usually the midpoint of a concentration-inhibition curve) was determined as 90 nM and the inhibition at 0.25 µM amounted to 63%. The “CB2 receptor binding percent inhibition” value on human CB2 receptor (setting [3]) is “^(3) 31%”.
Turning to `COC(=O)[C@@H](Cc1ccc(F)cc1)NC(=O)c1nn(-c2ccc(F)cc2F)c2c1CCC2Cc1cccc(F)c1` (stereo partly drawn) [Cpd 14, (2R)-2-{[1-(2,4-difluoro-phenyl)-6-(3-fluoro-benzyl)-1,4,5,6-tetrahydro-cyclopentapyrazole-3-carbonyl]-amino}-3-(4-fluoro-phenyl)-propionic acid methyl ester], the inhibition at 0.25 µM came out at 50% at human CB1 receptor [1] (setting [3]) and 30% on human CB2 receptor (setting [3]). Further, the “CB1 Receptor Functional Activity (change in functional activity)” value on human CB1 receptor [2] was determined as 48%.
For the molecule `CC12CCC(C1)C(C)(C)[C@H]2NC(=O)c1nn(-c2ccc(F)cc2F)c2c1CCC2Cc1cccc(F)c1` (stereo partly drawn) [Cpd 7, 1-(2,4-difluoro-phenyl)-6-(3-fluoro-benzyl)-1,4,5,6-tetrahydro-cyclopentapyrazole-3-carboxylic acid [(2S)-1,3,3-trimethyl-bicyclo[2.2.1]hept-2-yl]-amide], the inhibition at 0.25 µM at human CB1 receptor [1] was 60%; at human CB2 receptor it was 70%.
Consider `O=C(N[C@@H](CO)Cc1ccccc1)c1nn(-c2ccc(F)cc2F)c2c1CCC2Cc1cccc(F)c1` (stereo partly drawn) [Cpd 25, 1-(2,4-difluoro-phenyl)-6-(3-fluoro-benzyl)-1,4,5,6-tetrahydro-cyclopentapyrazole-3-carboxylic acid [(1R)-1-benzyl-2-hydroxy-ethyl]-amide], for which the inhibition at 0.2 µM at human CB1 receptor [1] was found to be 23%; on human CB2 receptor (setting [4]), 31%.
Take `O=C(NN1CCOCC1)c1nn(-c2ccc(F)cc2F)c2c1CCC2Cc1cccc(F)c1` (centres unmarked) [Cpd 22, 1-(2,4-difluoro-phenyl)-6-(3-fluoro-benzyl)-1,4,5,6-tetrahydro-cyclopentapyrazole-3-carboxylic acid morpholin-4-ylamide]: the values for the inhibition at 0.25 µM at human CB1 receptor [1] (setting [3]) and at human CB2 receptor (setting [3]) were 14% and 0%, respectively.
In the case of `O=C(N[C@@H](CCl)c1ccccc1)c1nn(-c2ccc(F)cc2F)c2c1CCC2Cc1cccc(F)c1` (stereo partly drawn) [Cpd 26, 1-(2,4-difluoro-phenyl)-6-(3-fluoro-benzyl)-1,4,5,6-tetrahydro-cyclopentapyrazole-3-carboxylic acid [(1R)-2-chloro-1-phenyl-ethyl]-amide], the values for the inhibition at 0.2 µM on human CB1 receptor [1] and at human CB2 receptor (setting [4]) were 24% and 32%, respectively.
Turning to `O=C(c1nn(-c2ccc(F)cc2F)c2c1CCC2Cc1cccc(F)c1)N1CCOCC1` (centres unmarked) [Cpd 23, [1-(2,4-difluoro-phenyl)-6-(3-fluoro-benzyl)-1,4,5,6-tetrahydro-cyclopentapyrazol-3-yl]-morpholin-4-yl-methanone], the inhibition at 0.25 µM at human CB1 receptor [1] (setting [3]) and at human CB2 receptor (setting [3]) was 0% in each case.
As for `O=C(N[C@H](CO)c1ccccc1)c1nn(-c2ccc(F)cc2F)c2c1CCC2Cc1cccc(F)c1` (stereo partly drawn) [Cpd 24, 1-(2,4-difluoro-phenyl)-6-(3-fluoro-benzyl)-1,4,5,6-tetrahydro-cyclopentapyrazole-3-carboxylic acid [(1S)-2-hydroxy-1-phenyl-ethyl]-amide], the inhibition at 0.2 µM on human CB1 receptor [1] and at human CB2 receptor (setting [4]) was 0% in each case.
As to `C[C@@H](NS(=O)(=O)/C=C/c1nn(-c2ccc(Cl)cc2Cl)c2c1CCC2Cc1cccc(Cl)c1)C1CCCCC1` (stereo partly drawn) [Cpd 9, (2E)-2-[6-(3-chloro-benzyl)-1-(2,4-dichloro-phenyl)-1,4,5,6-tetrahydro-cyclopentapyrazol-3-yl]-ethenesulfonic acid [(1R)-1-cyclohexyl-ethyl]-amide], the inhibition at 0.25 µM on human CB1 receptor [1] (setting [3]) is 44%; at human CB2 receptor (setting [3]), 18%.
For `O=C(N[C@H](CCl)Cc1ccccc1)c1nn(-c2ccc(F)cc2F)c2c1CCC2Cc1cccc(F)c1` (stereo partly drawn) [Cpd 27, 1-(2,4-difluoro-phenyl)-6-(3-fluoro-benzyl)-1,4,5,6-tetrahydro-cyclopentapyrazole-3-carboxylic acid [(1S)-1-benzyl-2-chloro-ethyl]-amide], the inhibition at 0.2 µM was found to be 14% on human CB1 receptor [1] and 22% on human CB2 receptor (setting [4]).
`O=C(c1nn(-c2ccc(F)cc2F)c2c1CCC2Cc1cccc(F)c1)N1CCN(c2ccccc2)CC1` (centres unmarked) [Cpd 17, [1-(2,4-difluoro-phenyl)-6-(3-fluoro-benzyl)-1,4,5,6-tetrahydro-cyclopentapyrazol-3-yl]-(4-phenyl-piperazin-1-yl)-methanone]: the inhibition at 1 µM on human CB1 receptor [1] was determined as 35%. In addition, the EC50 at human CB1 receptor [2] is 400 nM and 100 nM.
Regarding `O=C(NN1CCCCC1)c1nn(-c2ccc(Cl)cc2Cl)c2c1CC/C2=C\c1ccc(F)cc1` [Cpd 28, (6E)-1-(2,4-dichloro-phenyl)-6-(4-fluoro-benzylidene)-1,4,5,6-tetrahydro-cyclopentapyrazole-3-carboxylic acid piperidin-1-ylamide], the IC50 on human CB1 receptor [1] was 60 nM. Moreover, the “CB1 receptor binding percent inhibition” value at human CB1 receptor [1] (0.2 µM) is 0.06, ^(2) 68%. Further, the “CB2 receptor binding percent inhibition” value on human CB2 receptor (setting [4]) is reported as “^(2) 4%”.
